Nine compounds from ChEMBL document CHEMBL3046271, “Design and synthesis of 3-[3-(substituted phenyl)-4-piperidin-1-ylmethyl/-4-morpholin-4-ylmethyl-4,5-dihydro-isoxazol-5-yl]-1H-indoles as potent anti-inflammatory agents” (Med Chem Res, 2010) can be followed below.

In general, inhibition in vivo refers to the change of the read-out against control, counted positive when it falls.

Series [1] concerns Rattus norvegicus. The series can be described thus: Anti-inflammatory activity in Rattus norvegicus Wistar (rat) assessed as inhibition of carrageenan-induced paw edema at 70 mg/kg, po administered 1 hr prior to carrageenan challenge measured after 3 hr by plethysmometric analysis relative to control. Type of series: functional.
Series [2] relates to Rattus norvegicus. The series can be described thus: Ulcerogenic activity in Rattus norvegicus Wistar (rat) stomach assessed as severity index at 210 mg/kg, po after 17 hr relative to control. Type of series: toxicity, organism-based. Set-up: dose 210 mg/kg, route oral. To be noted: in vivo.
Series [3] deals with Rattus norvegicus. The series can be described thus: Antioxidant activity in Rattus norvegicus Wistar (rat) assessed as malondialdehyde content in gastric mucosa at 210 mg/kg, po after 17 hr by UV spectrophotometric analysis (reference value: 3.23 +/- 0.05 nmol). Type of series: functional.
The test system of series [4] is Rattus norvegicus. The series can be described thus: Anti-inflammatory activity in Rattus norvegicus Wistar (rat) assessed as inhibition of carrageenan-induced paw edema at 70 mg/kg, po administered 1 hr prior to carrageenan challenge measured after 4 hr by plethysmometric analysis relative to control. Type of series: functional. Background: In the carrageenan paw model, swelling and tenderness develop within hours.

The subject of series [5] is Rattus norvegicus. The series can be described thus: Antioxidant activity in Rattus norvegicus Wistar (rat) assessed as malondialdehyde content in gastric mucosa at 105 mg/kg, po after 17 hr by UV spectrophotometric analysis (reference value: 3.23 +/- 0.05 nmol). Type of series: functional.
Series [6] deals with Rattus norvegicus. The series can be described thus: Anti-inflammatory activity in Rattus norvegicus Wistar (rat) assessed as inhibition of carrageenan-induced paw edema at 35 mg/kg, po administered 1 hr prior to carrageenan challenge measured after 3 hr by plethysmometric analysis relative to control. Format: functional.
The test system of series [7] is Rattus norvegicus. The series can be described thus: Ulcerogenic activity in Rattus norvegicus Wistar (rat) stomach assessed as severity index at 105 mg/kg, po after 17 hr relative to control. Type of series: toxicity, organism-based. Also noted: dose 105 mg/kg, route oral. To be noted: in vivo.
Series [8] relates to Rattus norvegicus. The series can be described thus: Anti-inflammatory activity in Rattus norvegicus Wistar (rat) assessed as inhibition of carrageenan-induced paw edema at 35 mg/kg, po administered 1 hr prior to carrageenan challenge measured after 4 hr by plethysmometric analysis relative to control. Format: functional.

In the case of `COc1ccc(C2=NOC(c3c[nH]c4ccccc34)C2CN2CCOCC2)cc1` (stereo not given), the inhibition in vivo at 70 mg/kg in the series on Rattus norvegicus [1] came to 44.1%; in the series on Rattus norvegicus [4] it was 55.5%. In addition, in the series on Rattus norvegicus [2], the UI amounted to 0.25. Also, in the series on Rattus norvegicus [3], the Activity was determined as 4.16 nmol.

`Cc1ccc(C2=NOC(c3c[nH]c4ccccc34)C2CN2CCOCC2)cc1` (stereo not given): the inhibition in vivo at 70 mg/kg was 38.2% with Rattus norvegicus [1] and 48.5% in the series on Rattus norvegicus [4].

Regarding `Clc1ccc(C2=NOC(c3c[nH]c4ccccc34)C2CN2CCOCC2)cc1` (stereo not given), the results for the inhibition in vivo at 70 mg/kg in the series on Rattus norvegicus [1] and with Rattus norvegicus [4] were 44.1% and 50.5%, respectively. Besides, in the series on Rattus norvegicus [2], the UI was found to be 0.75. Also, in the series on Rattus norvegicus [3], the Activity amounted to 4.39 nmol.

With `c1ccc(C2=NOC(c3c[nH]c4ccccc34)C2CN2CCOCC2)cc1` (stereo not given), the inhibition in vivo at 70 mg/kg in the series on Rattus norvegicus [1] turned out to be 35.3%; in the series on Rattus norvegicus [4], 45.5%.

As for `COc1ccc(C2=NOC(c3c[nH]c4ccccc34)C2CN2CCCCC2)cc1` (stereo not given), the inhibition in vivo at 70 mg/kg in the series with Rattus norvegicus [1] is 45.1%; in the series with Rattus norvegicus [4] it was 50.5%. Also, in the series on Rattus norvegicus [2], the UI is 0.75. In addition, the Activity in the series with Rattus norvegicus [3] was 4.51 nmol.

As to `Cc1ccc(C2=NOC(c3c[nH]c4ccccc34)C2CN2CCCCC2)cc1` (stereo not given), the inhibition in vivo at 70 mg/kg in the series on Rattus norvegicus [1] is 41.2%; in the series with Rattus norvegicus [4] it was 51.5%. Further, the UI with Rattus norvegicus [2] turned out to be 0.5. For the same compound, the Activity in the series on Rattus norvegicus [3] amounted to 4.28 nmol.

As for `Clc1ccc(C2=NOC(c3c[nH]c4ccccc34)C2CN2CCCCC2)cc1` (stereo not given), the inhibition in vivo at 70 mg/kg with Rattus norvegicus [1] was found to be 45.1%; in the series with Rattus norvegicus [4] it was 53.5%. For the same compound, in the series on Rattus norvegicus [2], the UI is 0.583. Further, in the series with Rattus norvegicus [3], the Activity was 4.38 nmol.

Regarding `c1ccc(C2=NOC(c3c[nH]c4ccccc34)C2CN2CCCCC2)cc1` (stereo not given), the inhibition in vivo at 70 mg/kg was determined as 34.3% with Rattus norvegicus [1] and 48.5% with Rattus norvegicus [4].

As to `COc1ccc2c(c1)c(CC(=O)O)c(C)n2C(=O)c1ccc(Cl)cc1` [INDOMETHACIN], the Activity in the series on Rattus norvegicus [5] is listed as 9.29 nmol. Further, the inhibition in vivo at 35 mg/kg in the series on Rattus norvegicus [6] was 65.2%; in the series with Rattus norvegicus [8] it was 76.5%. Moreover, in the series on Rattus norvegicus [7], the UI came to 2.33.
